Counter-ions that a name gives are not always drawn.
Experiments:
[1] = target: Full-length PRMT5 enzyme co-expressed with His6-MEP50 (Homo sapiens (Human), UniProt O14744); assay: PRMT5 Biochemical Assay; conditions: Transcreener EPIGEN methyltransferase assay, histone H4 derived peptide substrate, 4 hours at 37 degree Celsius
Description: Compounds of the invention may be tested for in vitro activity in the following assay:
A histone H4 derived peptide is used as substrate (amino acid sequence: […]NH2). Full-length PRMT5 enzyme (NCBI Reference sequence NP_006100.2) was co-expressed with His6-MEP50 in insect cells and purified via Nickel immobilized metal affinity and gel filtration chromatography (“the enzyme”).
The 6 μL reactions are run in Greiner brand black 384-well low volume assay plates. All reactions contained assay buffer (phosphate buffered saline, 0.01% (v/v) Tween-20, 0.01% (w/v) albumin from chicken egg white, 1 mM Dithiothreitol, 1 μM peptide substrate, 1 μM S-Adenosyl methionine, and 15 ng/reaction enzyme, with the enzyme being omitted from negative control reactions. Compounds were added in a volume of 100 nL from dilution series prepared in DMSO, positive and negative control reactions receiving the same volume DMSO without compound. The plates were sealed with adhesive seals and incubated for 4 hours at 37 degree Celsius. Reaction progress was measured using the Transcreener™ EPIGEN methyltransferase assay (BellBrook Labs, Madison, Wis.) as recommended by the manufacturer. To each reaction 2 μL detection mix were added, containing coupling enzymes, fluorescence polarisation tracer, and AMP antibody. Plates were incubated for 90 minutes before being read on a PerkinElmer EnVision™ plate reader in fluorescence polarisation mode. IC50 values were obtained from the raw readings by calculating percent inhibition (% I) for each reaction relative to controls on the same plate (% I=(I−CN)/(CP−CN) where CN/CP are the averages of the negative/positive reactions, respectively), then fitting the % I data vs. compound concentration [I] to % I=(A+((B−A)/(1+((C/[I]^D)))) where A is the lower asymptote, B is the upper asymptote, C is the IC50 value, and D is the slope.

TE11 cell line = assay: PRMT5 Biomarker Assay (symmetrical dimethylation of arginine, Histone H4 Arginine 3); type: cell-based; conditions: Homo sapiens, TE-11; TE11 cells, 72 hours incubation, Di-Methyl Histone H4 Arginine 3 level
Description: Compounds of the invention may be tested for potency to inhibit symmetrical dimethylation of arginine in the following assay:
The cell line TE11 was seeded at a density of 6,000 cells per well in 96 well optical quality tissue culture plates in DME medium and 10% foetal bovine serum, and allowed to adhere for 5 hours under standard culture conditions (37 degree Celsius, 5% CO2). Compound dilutions prepared in DMSO were added to the medium, with negative control wells reserved for treatment with DMSO only and maximum inhibition controls receiving a potent PRMT5 inhibitor compound at 1 μM concentration. After incubation for 72 hours, the cells were fixed with 3.7% formaldehyde in PBS for 30 minutes at room temperature, washed with phosphate buffer saline and blocked with Odyssey blocking buffer (LI-COR, Lincoln, Nebr.). Rabbit anti-Di-Methyl Histone H4 Arginine 3 specific antibody (Epigentek) in Odyssey blocking buffer was added and incubated for 14 hours at 4 degree Celsius. After washing, anti-rabbit secondary antibody labelled with Alexa647 dye (LifeTechnologies) and Hoechst 33342 (1 μg/mL, SigmaAldrich) were added for 1 hour incubation. Plates were washed and read on a PerkinElmer Envision 2103 in fluorescence intensity scanning mode (24 scans across the well area). The plates were imaged on a PerkinElmer Phenix high content imaging platform. Using a Columbus image analysis pipeline, individual nuclei were located by Hoechst 33342 stain and the methylation level was calculated from the Alexa647-related intensity in the same area. IC50 values were obtained from the mean Alexa647-related intensity per cell by calculating percent inhibition (% I) for each well relative to controls on the same plate (% I=(I−CN)/(CP−CN) where CN/CP are the averages of the negative/maximum inhibition controls, respectively), then fitting the % I data vs. compound concentration [I] to % I=(A+((B−A)/(1+((C/[I])^D)))) where A is the lower asymptote, B is the upper asymptote, C is the IC50 value, and D is the slope.

Full-length PRMT5 enzyme co-expressed with His6-MEP50, sequence (O14744 whole entry): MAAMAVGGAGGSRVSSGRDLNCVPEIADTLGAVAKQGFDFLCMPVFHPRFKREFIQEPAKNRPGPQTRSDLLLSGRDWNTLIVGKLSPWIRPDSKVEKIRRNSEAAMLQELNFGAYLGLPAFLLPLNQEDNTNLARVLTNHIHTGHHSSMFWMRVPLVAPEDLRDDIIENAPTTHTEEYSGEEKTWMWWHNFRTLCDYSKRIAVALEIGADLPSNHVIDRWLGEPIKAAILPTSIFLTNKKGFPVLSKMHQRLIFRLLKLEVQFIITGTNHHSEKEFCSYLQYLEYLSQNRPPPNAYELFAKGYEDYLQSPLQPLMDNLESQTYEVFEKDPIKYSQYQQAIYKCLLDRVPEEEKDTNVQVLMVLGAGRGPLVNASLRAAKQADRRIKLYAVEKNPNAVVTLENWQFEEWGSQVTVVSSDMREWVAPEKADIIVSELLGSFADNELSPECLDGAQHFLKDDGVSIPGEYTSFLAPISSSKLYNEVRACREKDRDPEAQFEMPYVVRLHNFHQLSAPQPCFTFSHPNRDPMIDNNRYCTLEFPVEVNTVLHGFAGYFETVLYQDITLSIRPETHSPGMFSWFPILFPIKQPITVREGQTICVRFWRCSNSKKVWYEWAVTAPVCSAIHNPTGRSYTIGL
Full-length PRMT5 enzyme co-expressed with His6-MEP50, sequence (Q9BQA1 whole entry partner): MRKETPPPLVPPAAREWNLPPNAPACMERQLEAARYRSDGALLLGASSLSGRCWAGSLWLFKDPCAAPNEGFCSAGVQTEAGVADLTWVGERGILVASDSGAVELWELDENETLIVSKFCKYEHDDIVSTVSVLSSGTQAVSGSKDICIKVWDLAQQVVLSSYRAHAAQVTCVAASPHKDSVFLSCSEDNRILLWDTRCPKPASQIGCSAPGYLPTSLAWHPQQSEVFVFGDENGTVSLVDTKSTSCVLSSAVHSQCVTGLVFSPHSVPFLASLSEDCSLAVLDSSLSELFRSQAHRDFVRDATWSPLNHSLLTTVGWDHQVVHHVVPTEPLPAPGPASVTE

SMILES	IC50 [1]	IC50 (TE11 cell line)
CCOc1cc(C(=O)N2C3CCC2COC3)ccc1C(=O)N(C)C[C@@H](O)[C@@H]1Cc2ccccc2CN1 [Compound 3, 4-(3-Oxa-8-azabicyclo[3.2.1]octane-8-carbonyl)-2-ethoxy-N—((R)-2-hydroxy-2-((S)-1,2,3,4-tetrahydroisoquinolin-3-yl)ethyl)-N-methylbenzamide Hydrochloride]	36 nM	11.7 nM
CCOc1cc(C(=O)N2C3COCC2CC(O)C3)ccc1C(=O)NC[C@@H](O)CNC1Cc2ccccc2C1 (stereo partly drawn) [Compound 2, N—((S)-3-((2,3-Dihydro-1H-inden-2-yl)amino)-2-hydroxypropyl)-2-ethoxy-4-(7-hydroxy-3-oxa-9-azabicyclo[3.3.1]nonane-9-carbonyl)benzamide]	19 nM	0.6 nM
CCOc1cc(C(=O)N2C3COCC2CC(O)C3)ccc1C(=O)NC[C@@H](O)[C@@H]1Cc2ccccc2CN1 (stereo partly drawn) [Compound 1, 2-Ethoxy-N—((R)-2-hydroxy-2-((S)-1,2,3,4-tetrahydroisoquinolin-3-yl)ethyl)-4-(7-hydroxy-3-oxa-9-azabicyclo[3.3.1]nonane-9-carbonyl)benzamide Hydrochloride]	19 nM	3.9 nM

Reference: patent publication US10519167B2, “3-oxa-8-azabicyclo[3.2.1]octane derivatives and their use in the treatment of cancer and hemoglobinopathies” (CTXT PTY LTD, priority 2016, dated 2019)
